Tests used:
Format in all cases: physicochemical
[1] = Slurry turnover of Compound 2 Form B, Form I and Form G (Example 11, Table 25); settings: IPAc and MTBE, RT or 50° C., 24 hours
Description: To further study the form identity of Form B and Form I, slurry turnover experiments were performed in two solvents with the addition of Form G. Form B was dissolved in IPAc and MTBE respectively to get saturated solutions. Similar mass of Form B, G and I were weighed into a 2-mL vial, upon which the corresponding saturated solution was added to give the slurry, which was stirred at RT or 50° C. After slurry for 24 hours, the solids obtained were analyzed by XRPD.

[2] = Chemical stability by HPLC-UV at 275 nm and 254 nm (Table 9)
Description: High Pressure Liquid Chromatography (HPLC) data were obtained according to Tables 6 or 7, below:
A standard stock was dissolved with diluent in a volumetric flask (e.g., 25 mg in 25 mL). This stock was vortexed and sonicated 10 sec to dissolve, and then diluted 1:10, 1:4, and 1:2 either in volumetric flasks or in HPLC vials to generate a standard curve. […] Where appropriate, a blank was created to accurately replicate the matrix of the analytical sample, and peaks appearing in the blank were identified before integration and quantification using Chemstation software.
The chemical stability of Succinate Form A was determined using HPLC-UV at 275 nm and 254 nm.
The chemical stability of Form G was determined using HPLC-UV at 275 nm and 254 nm.

[3] = Physical stability of Compound 2 Form G over 42 days at varying conditions by XRPD, PLM, DSC/TGA (Table 23)
Description: The stability of Compound 2 Form G was tested over 42 days at varying conditions and is reported below in Table 23 and in FIG. 61:
On Day 38, stability samples at 50° C. were exposed to temperatures of approximately 85° C. for 24 hours.

[4] = Hygroscopicity evaluation by Dynamic Vapor Sorption (DVS) with XRPD of the solids after DVS; settings: for solid form after the DVS test: XRPD of solids after DVS
Description: Dynamic Vapor Sorption (DVS) was obtained using a Surface Measurement Systems (SMS) DVS Intrinsic. The relative humidity at 25° C. were calibrated against deliquescence point of LiCl, Mg (NO3)2 and KCl.

[5] = Slurry competition between Compound 2 Form G and Form O for stability evaluation (Example 10, Table 24); settings: IPAc and MTBE, RT and 50° C., 24 hours
Description: The slurry competition experiments between the two anhydrates, Form G and Form O, were performed in two solvents, IPAc and MTBE, at RT and 50° C. for stability evaluation. Form O was dissolved in IPAc and MTBE respectively to get saturated solutions. Then, similar masses of Form G and Form O were added into a 2-mL vial, upon which the corresponding saturated solution was added to give the slurry, which was stirred at RT or 50° C. for 24 hours. The solids collected were analyzed by XRPD to confirm the form change.

[6] = Aqueous solubility estimation of Compound 2 Form G, Form O and Form I at RT (Example 13, Table 27)
Description: Aqueous solubility tests at RT were conducted on the two potential anhydrates, Form G and O, and the hydrated Form I. About 3 mg of each form was weighed into a 2-mL vial. […] of water was added and stirred thoroughly at RT with the speed of 800 RPM.

[7] = Critical aw between Compound 2 Form G and Form I, slurry turnover in H2O/IPAc (Example 12, Table 26); settings: H2O/IPAc, RT and 50° C., 24 hrs; except aw of 0.8 at RT (close to amorphous)
Description: To investigate the critical aw between hydrated Form I and the stable anhydrate, Form G, slurry turnover of Form I and Form G was conducted in a co-solvent system (H2O/IPAc) with different aw at RT and 50° C. Similar mass of Form G and Form I were added into a 2-mL vial, followed by adding solvent and stirring at RT or 50° C. for 24 hrs. The solids obtained were analyzed by XRPD to confirm the form change.

[8] = Slurry conversion of Fumarate Forms A, B and C (Example 6, Table 11); settings: RT, about 4 days
Description: Slurry conversion of Fumarate Forms A, B, and C was conducted in three different solvents.

[9] = Aqueous solubility evaluation of Compound 1 salt forms (Example 5, Table 10)
Description: For each of the experiments 1 through 5 in Table 10, about 100 mg of solid form was suspended in 1.5 mL of water, and the vial was rolled at RT for about 24 hours (25 r/min). […] Supernatant of experiment 3 was collected by filtration through a 0.45 μm membrane for HPLC analysis. For each of the experiments 6 through 10 in Table 10, about 40 mg of solid form was dissolved in 0.2 mL (0.9 mL for experiment 7) water and then analyzed by HPLC after 24-hour storage at RT.

[10] = ambient conditions and 25° C./60% RH open, 42 days, 254 nm
[11] = 50° C., closed, 42* days (Day 38 excursion to approximately 85° C. for 24 hours)

Q: What does the source list for `C[C@H]1CCc2c(ccc(-c3cnn(C4CCNCC4)c3)c2OC2CCC2)N1C(=O)C1CC1.O=C(O)CCC(=O)O` [Form G, (S)-(5-cyclobutoxy-2-methyl-6-(1-(piperidin-4-yl)-1H-pyrazol-4-yl)-3,4-dihydroquinolin-1(2H)-yl)(cyclopropyl)methanone succinate]?
A: form obtained from slurry of a mixture of Form B, G and I (XRPD) [1]: converted to Form G completely; claim of the expected Compound 2 content by HPLC-UV ([2]; all stability samples, 275 nm): 95-107 % claim; impurity increase by HPLC-UV [2, 10]: no significant impurity increase; reduction in purity by HPLC-UV [2, 10]: no reduction in purity; DSC endotherm Temp ([3]; 25° C./60% RH open, 1 days): 125.46 °C; DSC endotherm ΔH ([3]; 25° C./60% RH open, 1 days): 66.76 J/g; TGA % weight loss before 150° C. ([3]; 25° C./60% RH open, 1 days): 0.4580%; DSC endotherm Temp ([3]; 25° C./60% RH open, 3 days): 125.61 °C; DSC endotherm ΔH ([3]; 25° C./60% RH open, 3 days): 63.86 J/g; TGA % weight loss before 150° C. ([3]; 25° C./60% RH open, 3 days): 0.5433%; DSC endotherm Temp ([3]; 25° C./60% RH open, 7 days): 125.68 °C; DSC endotherm ΔH ([3]; 25° C./60% RH open, 7 days): 64.19 J/g; TGA % weight loss before 150° C. ([3]; 25° C./60% RH open, 7 days): 0.5129%; DSC endotherm Temp ([3]; 25° C./60% RH open, 14 days): 125.64 °C; DSC endotherm ΔH ([3]; 25° C./60% RH open, 14 days): 65.95 J/g; TGA % weight loss before 150° C. ([3]; 25° C./60% RH open, 14 days): 0.5232%; DSC endotherm Temp ([3]; 25° C./60% RH open, 21 days): 125.94 °C; DSC endotherm ΔH ([3]; 25° C./60% RH open, 21 days): 64.03 J/g; TGA % weight loss before 150° C. ([3]; 25° C./60% RH open, 21 days): 0.6097%; DSC endotherm Temp ([3]; 25° C./60% RH open, 42 days): 126.50 °C; DSC endotherm ΔH ([3]; 25° C./60% RH open, 42 days): 57.76 J/g; TGA % weight loss before 150° C. ([3]; 25° C./60% RH open, 42 days): 0.6016%; flowability by visual assessment ([3]; 50° C. sample after being exposed to higher temperatures): slight reduction in flowability; physical stability (XRPD, DSC/TGA, PLM) ([3]; 50° C. samples, exposed on Day 38 to approximately 85° C. for 24 hours): physically stable; DSC endotherm Temp [3, 11]: 121.80 °C; DSC endotherm ΔH [3, 11]: 51.32 J/g; TGA % weight loss before 150° C. [3, 11]: 0.7707%; DSC endotherm Temp ([3]; 50° C., closed, 1 days): 125.53 °C; DSC endotherm ΔH ([3]; 50° C., closed, 1 days): 67.41 J/g; TGA % weight loss before 150° C. ([3]; 50° C., closed, 1 days): 0.4716%; DSC endotherm Temp ([3]; 50° C., closed, 3 days): 125.97 °C; DSC endotherm ΔH ([3]; 50° C., closed, 3 days): 59.90 J/g; TGA % weight loss before 150° C. ([3]; 50° C., closed, 3 days): 0.4670%; DSC endotherm Temp ([3]; 50° C., closed, 7 days): 125.97 °C; DSC endotherm ΔH ([3]; 50° C., closed, 7 days): 65.47 J/g; TGA % weight loss before 150° C. ([3]; 50° C., closed, 7 days): 0.5022%; DSC endotherm Temp ([3]; 50° C., closed, 14 days): 125.16 °C; DSC endotherm ΔH ([3]; 50° C., closed, 14 days): 64.27 J/g; TGA % weight loss before 150° C. ([3]; 50° C., closed, 14 days): 0.5893%; DSC endotherm Temp ([3]; 50° C., closed, 21 days): 125.21 °C; DSC endotherm ΔH ([3]; 50° C., closed, 21 days): 64.69 J/g; TGA % weight loss before 150° C. ([3]; 50° C., closed, 21 days): 0.5702%; DSC endotherm Temp ([3]; Initial, 0 days): 125.51 °C; DSC endotherm ΔH ([3]; Initial, 0 days): 63.56 J/g; TGA % weight loss before 150° C. ([3]; Initial, 0 days): 0.5459%; flow properties by visual assessment ([3]; ambient 42 days, 25° C./75% RH 42 days, 50° C. 21 days): good flow properties; DSC endotherm Temp ([3]; ambient, closed, 1 days): 125.59 °C; DSC endotherm ΔH ([3]; ambient, closed, 1 days): 62.59 J/g; TGA % weight loss before 150° C. ([3]; ambient, closed, 1 days): 0.5454%; DSC endotherm Temp ([3]; ambient, closed, 3 days): 125.61 °C; DSC endotherm ΔH ([3]; ambient, closed, 3 days): 63.01 J/g; TGA % weight loss before 150° C. ([3]; ambient, closed, 3 days): 0.5338%; DSC endotherm Temp ([3]; ambient, closed, 7 days): 125.41 °C; DSC endotherm ΔH ([3]; ambient, closed, 7 days): 63.00 J/g; TGA % weight loss before 150° C. ([3]; ambient, closed, 7 days): 0.5540%; DSC endotherm Temp ([3]; ambient, closed, 14 days): 125.52 °C; DSC endotherm ΔH ([3]; ambient, closed, 14 days): 63.86 J/g; TGA % weight loss before 150° C. ([3]; ambient, closed, 14 days): 0.4133%; DSC endotherm Temp ([3]; ambient, closed, 21 days): 125.38 °C; DSC endotherm ΔH ([3]; ambient, closed, 21 days): 67.51 J/g; TGA % weight loss before 150° C. ([3]; ambient, closed, 21 days): 0.8085%; DSC endotherm Temp ([3]; ambient, closed, 42 days): 125.35 °C; DSC endotherm ΔH ([3]; ambient, closed, 42 days): 66.56 J/g; TGA % weight loss before 150° C. ([3]; ambient, closed, 42 days): 0.4578%; change in physical form by XRPD, PLM or DSC/TGA ([3]; storage conditions below 75% RH, after 42 days): no significant change in physical form; solid form after the DVS test ([4]; succinate): amorphous; water absorbed above 70% RH (DVS) ([4]; above 70% RH): about 25.19 % (wt/wt); hygroscopicity (DVS) ([4]; absorption up to 80% RH, 25° C., succinate): high hygroscopicity; form obtained from slurry competition of Form G and Form O (XRPD) [5]: converted to Form G completely; Observation Initial ([6]; about 3 mg in 50 μL water, initial, succinate): Clear; solubility at 2 h ([6]; thermodynamic from solid, water, stirring 2 hrs at 800 RPM): > 60 mg/mL; form obtained from slurry of Form G and Form I at different aw (XRPD) [7]: completely converted to Form G

Q: With `C[C@H]1CCc2c(ccc(-c3cnn(C4CCNCC4)c3)c2OC2CCC2)N1C(=O)C1CC1.O=C(O)/C=C/C(=O)O` [Fumarate Type A, B and C] as the molecule, how does the “Solid form after slurry conversion” value ([8]; ACN) read?
A: The value was “Fumarate Form A”.

Q: What about the “Solid form after slurry conversion” value ([8]; Acetone) of the same molecule?
A: The value was “Fumarate Form B”.

Q: And the “Solid form after slurry conversion” value ([8]; EtOAc)?
A: Its value is “Fumarate Form C”.

Q: For `C[C@H]1CCc2c(ccc(-c3cnn(C4CCNCC4)c3)c2OC2CCC2)N1C(=O)C1CC1.O=C(O)CCC(=O)O` [Succinate Form A, (S)-(5-cyclobutoxy-2-methyl-6-(1-(piperidin-4-yl)-1H-pyrazol-4-yl)-3,4-dihydroquinolin-1(2H)-yl)(cyclopropyl)methanone succinate], which “chemical degradation by HPLC-UV” value ([2]; after 42 days at 25° C./60% RH) is on record?
A: The value was “did not show significant chemical degradation”.

Q: What about the “chemical degradation by HPLC-UV” value ([2]; after 42 days at temperatures below 40° C.) of the same molecule?
A: The value was “no significant chemical degradation”.

Q: What about the “behaviour at high humidity (DVS)” value ([4]; >60% RH, 25° C.) of the same molecule?
A: The value was “deliquescent”.

Q: And the “solid form after the DVS test” value ([4]; succinate)?
A: Its value is “amorphous or jelly solids”.

Q: What about the solubility in water [9] of the same molecule?
A: Its solubility in water is over 100 mg FB/mL.
